According to patent US20080241115A1, “Use Of Mesenchymal Stem Cells Genetically Modified To Express A Suicide Gene For Treating A Cancer” (Ajou University Industry-Academic Cooperation Foundation, priority 2005, published 2008):

Assays:
C6 glioma cells = experiment: Cytotoxic effect of 5-FU on glioma cells, MTT assay; type: cell-based; conditions: C6, 5-FU 1 week
Procedure: (§1) To verify that 5-FU produced by MSC/CD is sufficient to induce cell death in various glioma cells, C6 (KCLB No. 10107), U373 (KCLB No. 30017), U87 (KCLB No. 30014) cells were freshly obtained from KCLB (Korean cell line bank) and plated in 96-well plates in growth medium at a density of 100 cells/well, 100 cells/well, and 500 cells/well, respectively. After 24 hours, 5-FU was added to the cells at 0.01-100 μM. After 1 week, cell viability was estimated by MTT assay as described above.

U373 glioma cells = experiment: as above; type: cell-based; conditions: U373, 5-FU 1 week
Procedure: as §1

U87 glioma cells = experiment: as above; type: cell-based; conditions: U87, 5-FU 1 week
Procedure: as §1

293T/CD cells = experiment: Suicide effect of CD gene, MTT viability assay and phase contrast microscopy; type: cell-based
Procedure: (§2) Normal 293T cells and 293T/CD cells transformed with pMSCV-puro/CD prepared in Step 1 were plated at a density of 2,000 cells/well in a 24-well plate containing DMEM with 10% fetal bovine serum. After 24 hours, 5-FC was added to the cells at various concentrations (0-10 mM). The media was replaced with fresh medium containing 5-FC every 2 days for 1 week. […] The viability was estimated by measuring mitochondria NADPH activity by 3-(4,5-dimethyl-thiazol-2-yl)-2,5-diphenyltetrazolium bromide (MTT) assay. The cells were incubated in 200 μl of […] MTT (Sigma, U.S.A) in PBS for 4 hours. The solution was replaced with 200 μl of absolute dimethyl sulfoxide (DMSO, Sigma). After incubated at room temperature for 15 minutes, the absorbance at 540 nm was measured with an ELISA reader (Molecular Probe, U.S.A). The data in FIG. 4B are presented as averages ±S.E. with respect to that of the cells grown in the absence of 5-FC from 3 independent experiments.

293T cells = experiment: Suicide effect control, MTT viability assay; type: cell-based; conditions: normal 293T cells, 1,000 μM 5-FC
Procedure: as §2

MSC/CD cells = experiment: Suicide effect of CD gene in MSC/CD cells, MTT assay and light microscopy; type: cell-based, human
Procedure: CD-expressing retrovirus was used to deliver the CD gene into MSCs. MSCs obtained in Step 1 of Example 1 were grown in growth medium (DMEM containing 10% FBS, 100 units/ml penicillin and 100 μg/ml streptomycin) at 37° C. and 5% CO2 until 70% confluence. CD-expressing retrovirus prepared in Example 2 was added to the culture with 1:1 dilution in the growth medium in the presence of 8 μg/ml polybrene (Sigma) for 8 hours and in the fresh growth medium for 16 hours. After the retroviral transduction was repeated 2 more times, the cells were split into 1:3 in growth medium containing 4 μg/ml puromycin (Sigma) for 14 days. The survived cells were pooled, and used in the subsequent experiments.
(§3) MSC/CD or MSC cells were plated in growth medium at a density of 5,000 cells/well in a 6-well plate one day before exposure to 5-FC. The medium was replaced every 2 days with fresh growth medium containing 0-10 mM 5-FC for 2 weeks. […] The viability was estimated by measuring mitochondria NADPH activity using MTT assay as mentioned above with 293T/CD cells. The data are presented as averages ±S.E with respect to that of the untreated cells from 3 independent experiments (FIG. 6B).

MSC cells = experiment: Suicide effect control in MSCs, MTT assay; type: cell-based, human; conditions: up to 1,000 μM 5-FC, 2 weeks
Procedure: as §3

Structure (SMILES): O=c1[nH]cc(F)c(=O)[nH]1 [5-FU, 5-fluorouracil]
- concentration at which cell death reached plateau (C6 glioma cells): 10 µM
- IC50 (C6 glioma cells; C6 glioma, 168 h, read-out: IC50 of cell death): 0.93 µM
- IC50 (U373 glioma cells; Homo sapiens, U373 MG, 168 h, read-out: IC50 of cell death): 5.34 µM
- concentration at which cell death reached plateau (U373 glioma cells): 10 µM
- IC50 (U87 glioma cells; Homo sapiens, U-87 MG, 168 h, read-out: IC50 of cell death): 5.65 µM
- concentration at which cell death reached plateau (U87 glioma cells): 10 µM

Structure (SMILES): Nc1nc(=O)[nH]cc1F [5-FC, 5-fluorocytosine]
- viability by phase contrast microscopy (293T/CD cells; 293T/CD cells, 1,000 μM 5-FC): reduced
- concentration from which cell death was detected (293T/CD cells; 293T/CD cells, 5-FC for 1 week, MTT): 10 µM
- IC50 (293T/CD cells; Homo sapiens, HEK-293T, 168 h, 293T/CD cells, 5-FC for 1 week, MTT, read-out: IC50 of cell death): 296 µM
- cell death (293T cells): did not show cell death
- IC50 (MSC/CD cells; Homo sapiens, 336 h, MSC/CD cells, 5-FC for 2 weeks, MTT, read-out: IC50 of cell death): 332 µM
- cell death by light microscopy (MSC/CD cells; MSC/CD cells, 1,000 μM 5-FC for 2 weeks): almost died
- concentration from which cell death was detected (MSC/CD cells; MSC/CD cells, 5-FC for 2 weeks, MTT): 100 µM
- cell death (MSC cells): did not show cell death
